# Measurements taken from patent US11382918B2, “Methods for treating Huntington's Disease” (PTC Therapeutics, Inc., priority 2017, dated 2022).
# Test system: Endogenous Huntingtin Protein (HTT)
# Test: Endogenous Huntingtin Protein Assay (ELISA-based MSD electrochemiluminescence)
# Type: cell-based
# Conditions: Table 1
# In short: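 MSD electrochemiluminescence sandwich ELISA for endogenous HTT: sample lysates captured overnight at 4 °C on MW1 (expanded polyglutamine) or MAB2166 antibody. Detection used rabbit monoclonal #5656S, then goat anti-rabbit SULFO-TAG antibody, each 1 h at room temperature.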
row,Structure (SMILES),IC50 [nM]
1,"Cn1cc2cc(-c3cc(=O)n4cc(C5=CCNCC5)ccc4n3)ccc2n1 [compound 474, 2-(2-methyl-2H-indazol-5-yl)-7-(1,2,3,6-tetrahydropyridin-4-yl)-4H-pyrido[1,2-a]pyrimidin-4-one]",500 to 1000
2,"CN1CC=C(c2ccc3nc(-c4ccc5nn(C)cc5c4)cc(=O)n3c2)CC1 [compound 476, 2-(2-methyl-2H-indazol-5-yl)-7-(1-methyl-1,2,3,6-tetrahydropyridin-4-yl)-4H-pyrido[1,2-a]pyrimidin-4-one]",3000 to 33000
3,"CCN1CC=C(c2ccc3nc(-c4ccc5nn(C)cc5c4)cc(=O)n3c2)CC1 [compound 477, 7-(1-ethyl-1,2,3,6-tetrahydropyridin-4-yl)-2-(2-methyl-2H-indazol-5-yl)-4H-pyrido[1,2-a]pyrimidin-4-one]",1000 to 3000
4,"Cc1cn2cc(-c3cc(=O)n4cc(C5=CCN(C(C)C)CC5)ncc4n3)cc2c(C)n1 [compound 479, 2-(1,3-dimethylpyrrolo[1,2-a]pyrazin-7-yl)-7-[1-(propan-2-yl)-1,2,3,6-tetrahydropyridin-4-yl]-4H-pyrazino[1,2-a]pyrimidin-4-one]",3000 to 33000
5,"Cc1cn2nc(-c3cc(=O)n4cc(C5=CCNCC5)cc(C)c4n3)cc2c(C)n1 [compound 480, 2-(4,6-dimethylpyrazolo[1,5-a]pyrazin-2-yl)-9-methyl-7-(1,2,3,6-tetrahydropyridin-4-yl)-4H-pyrido[1,2-a]pyrimidin-4-one]",100 to 500
6,"Cc1cn2nc(-c3cc(=O)n4cc(C5=CCN(C)CC5)cc(C)c4n3)cc2c(C)n1 [compound 481, 2-(4,6-dimethylpyrazolo[1,5-a]pyrazin-2-yl)-9-methyl-7-(1-methyl-1,2,3,6-tetrahydropyridin-4-yl)-4H-pyrido[1,2-a]pyrimidin-4-one]",3000 to 33000
7,"CCN1CC=C(c2cc(C)c3nc(-c4cc5c(C)nc(C)cn5n4)cc(=O)n3c2)CC1 [compound 482, 2-(4,6-dimethylpyrazolo[1,5-a]pyrazin-2-yl)-7-(1-ethyl-1,2,3,6-tetrahydropyridin-4-yl)-9-methyl-4H-pyrido[1,2-a]pyrimidin-4-one]",3000 to 33000
8,"Cc1cc2cc(-c3cc(=O)n4cc(N5CCNCC5)ccc4n3)oc2c(C)n1 [compound 486, 2-(5,7-dimethylfuro[2,3-c]pyridin-2-yl)-7-(piperazin-1-yl)-4H-pyrido[1,2-a]pyrimidin-4-one]",500 to 1000
9,"Cc1cc2cc(-c3cc(=O)n4cc(N5CCN(C)CC5)ccc4n3)oc2c(C)n1 [compound 487, 2-(5,7-dimethylfuro[2,3-c]pyridin-2-yl)-7-(4-methylpiperazin-1-yl)-4H-pyrido[1,2-a]pyrimidin-4-one]",500 to 1000
10,"CN1CCN(c2ccc3nc(-c4ccc5c(cnn5C)c4)cc(=O)n3c2)CC1 [compound 489, 2-(1-methyl-1H-indazol-5-yl)-7-(4-methylpiperazin-1-yl)-4H-pyrido[1,2-a]pyrimidin-4-one]",3000 to 33000
11,"Cn1ncc2cc(-c3cc(=O)n4cc(N5CCNCC5)ccc4n3)ccc21 [compound 490, 2-(1-methyl-1H-indazol-5-yl)-7-(piperazin-1-yl)-4H-pyrido[1,2-a]pyrimidin-4-one]",3000 to 33000
12,"Cc1cn2nc(-c3cc(=O)n4cc(C5CCNCC5)ncc4n3)cc2c(C)n1 [compound 502, 2-(4,6-dimethylpyrazolo[1,5-a]pyrazin-2-yl)-7-(piperidin-4-yl)-4H-pyrazino[1,2-a]pyrimidin-4-one]",< 100
13,"Cc1cn2nc(-c3cc(=O)n4cc(C5CCN(C)CC5)ncc4n3)cc2c(C)n1 [compound 503, 2-(4,6-dimethylpyrazolo[1,5-a]pyrazin-2-yl)-7-(1-methylpiperidin-4-yl)-4H-pyrazino[1,2-a]pyrimidin-4-one]",1000 to 3000
14,"CCN1CCC(c2cn3c(=O)cc(-c4cc5c(C)nc(C)cn5n4)nc3cn2)CC1 [compound 504, 2-(4,6-dimethylpyrazolo[1,5-a]pyrazin-2-yl)-7-(1-ethylpiperidin-4-yl)-4H-pyrazino[1,2-a]pyrimidin-4-one]",100 to 500
